Results published in PMC7180572, “5-Alkylamino-N-phenylpyrazine-2-carboxamides: Design, Preparation, and Antimycobacterial Evaluation” (Molecules, 2020).
Converted amounts (≈) assume the structure as drawn. Like-named read-outs stand apart in the source and are kept apart here.

What was measured:
[1] = system: Mycobacterium tuberculosis H37Ra ITM-M006710 (ATCC 9431); assay: Microdilution broth, modified Microplate Alamar Blue Assay, whole cell growth inhibition; format: cell-based; details: Mycobacterium tuberculosis; in vitro, Middlebrook 7H9 broth, resazurin; read-out: MIC Mtb H37Ra
[2] = system: Klebsiella pneumoniae ATCC 10031, CCM 4415; assay: Antibacterial microdilution broth method (EUCAST)
[3] = system: Staphylococcus aureus spp.aureus ATCC 29213, CCM 4223; assay: Antibacterial microdilution broth method (EUCAST); format: cell-based; details: read-out: MIC SA
[4] = system: Pseudomonas aeruginosa ATCC 27853, CCM 3955; assay: Antibacterial microdilution broth method (EUCAST); format: cell-based; details: read-out: MIC PA
[5] = system: Candida krusei ATCC 6258, CCM 8271; assay: Antifungal microdilution broth method (EUCAST); format: cell-based; details: Pichia kudriavzevii
[6] = system: Staphylococcus aureus methicillin resistant ATCC 43300, CCM 4750; assay: microbe, parasite or virus in culture; format: cell-based; details: ATCC 43300 / CCM 4750 / MRSA, read-out: MIC MRSA
[7] = system: Mycobacterium smegmatis DSM 43465 (ATCC 607); assay: Microdilution broth, modified Microplate Alamar Blue Assay, whole cell growth inhibition; format: cell-based; details: Mycolicibacterium smegmatis, read-out: MIC Mycobacterium smegmatis
[8] = system: Mycobacterium aurum DSM 43999 (ATCC 23366); assay: as above; format: cell-based; details: Mycolicibacterium aurum, read-out: MIC Mycobacterium aurum
HepG2 cells = assay: HepG2 cytotoxicity, CellTiter 96 (MTS) assay; format: cell-based, human; details: for IC50: Homo sapiens, HepG2, 24 h, read-out: HepG2 IC50; for SI, selectivity index: IC50 (HepG2)/MIC against Mtb H37Ra (in µM)
[9] = system: Candida albicans ATCC 24433, CCM 8320; assay: Antifungal microdilution broth method (EUCAST); format: cell-based
[10] = system: Candida tropicalis ATCC 750, CCM 8264; assay: Antifungal microdilution broth method (EUCAST); format: cell-based; details: read-out: MIC CT
[11] = system: Escherichia coli ATCC 25922, CCM 3954; assay: Antibacterial microdilution broth method (EUCAST); format: cell-based; details: read-out: MIC EC
[12] = system: Trichophyton interdigitale ATCC 9533, CCM 8377; assay: Antifungal microdilution broth method (EUCAST); format: cell-based; details: read-out: MIC TI
[13] = system: Aspergillus flavus CCM 8363; assay: Antifungal microdilution broth method (EUCAST); format: cell-based; details: read-out: MIC AFla
[14] = system: Enterococcus faecalis ATCC 29212, CCM 4224; assay: Antibacterial microdilution broth method (EUCAST); format: cell-based; details: read-out: MIC EF
[15] = system: Candida parapsilosis ATCC 22019, CCM 8260; assay: Antifungal microdilution broth method (EUCAST); format: cell-based; details: Lodderomyces parapsilosis
[16] = system: Staphylococcus epidermidis ATCC 12228, CCM 4418; assay: Antibacterial microdilution broth method (EUCAST); format: cell-based; details: read-out: MIC SE
[17] = system: Absidia corymbifera CCM 8077 (Lichtheimia corymbifera); assay: Antifungal microdilution broth method (EUCAST); format: cell-based; details: read-out: MIC AC
[18] = system: Aspergillus fumigatus ATCC 204305; assay: Antifungal microdilution broth method (EUCAST); format: cell-based; details: read-out: MIC AF
[19] = system: Acinetobacter baumanii ATCC 19606, DSM 30007; assay: Antibacterial microdilution broth method (EUCAST); format: cell-based; details: Acinetobacter baumannii

In the case of `CCCCCCCCNc1cnc(C(=O)Nc2cccc(C(F)(F)F)c2)cn1` [Compound 1f, 5-(Octylamino)-N-(3-(trifluoromethyl)phenyl)pyrazine-2-carboxamide], the MIC [1] is reported as ≥ 500 µg/mL, the “MIC KP” value ([2]; 24h) is reported as > 500 µM and the “MIC KP” value ([2]; 48h) is reported as > 500 µM. The MIC ([3]; 24 h) was > 500 µM, the MIC ([3]; 48 h) was > 500 µM and the MIC ([4]; 72 h) was > 500 µM. For the same compound, the MIC ([4]; 120 h) was > 500 µM, the MIC ([5]; 24 h, read-out: MIC CK) was > 500 µM and the MIC ([5]; 48 h, read-out: MIC CK) was > 500 µM. The MIC ([6]; 24 h) was > 500 µM, the MIC ([6]; 48 h) was > 500 µM and the MIC [7] was ≥ 500 µg/mL. The MIC [8] was ≥ 500 µg/mL, the IC50 (HepG2 cells) was 66.2 µM and the MIC ([9]; 24 h, read-out: MIC CA) was > 500 µM. The MIC ([9]; 48 h, read-out: MIC CA) was > 500 µM, the MIC ([10]; 24 h) was > 500 µM and the MIC ([10]; 48 h) was > 500 µM. For the same compound, the MIC ([11]; 24 h) was > 500 µM, the MIC ([11]; 48 h) was > 500 µM and the MIC ([12]; 72 h) was > 500 µM. For the same compound, the MIC ([12]; 120 h) was > 500 µM, the MIC ([13]; CCM8363, 24 h) was > 500 µM and the MIC ([13]; CCM8363, 48 h) was > 500 µM. For the same compound, the MIC ([14]; 24 h) was > 500 µM, the MIC ([14]; 48 h) was > 500 µM and the MIC ([15]; 24 h, read-out: MIC CP) was > 500 µM. The MIC ([15]; 48 h, read-out: MIC CP) was > 500 µM, the melting point was 135 to 136 °C and the MIC ([16]; 24 h) was > 500 µM. For the same compound, the MIC ([16]; 48 h) was > 500 µM, the MIC ([17]; CCM8077, 24 h) was > 500 µM and the MIC ([17]; CCM8077, 48 h) was > 500 µM. For the same compound, the MIC ([18]; ATCC204305, 24 h) was > 500 µM, the MIC ([18]; ATCC204305, 48 h) was > 500 µM and the MIC ([19]; 24h) was > 500 µM. The MIC ([19]; 48h) was > 500 µM.
For `CCCNc1cnc(C(=O)Nc2cccc(O)c2)cn1` [Compound 2a, N-(3-hydroxyphenyl)-5-(propylamino)pyrazine-2-carboxamide], the MIC [1] was 7.81 µg/mL (≈ 28.7 µM), the “MIC KP” value ([2]; 24h) was > 125 µM and the “MIC KP” value ([2]; 48h) was > 125 µM. The MIC ([3]; 24 h) was > 125 µM, the MIC ([3]; 48 h) was > 125 µM and the MIC ([4]; 72 h) was > 125 µM. For the same compound, the MIC ([4]; 120 h) was > 125 µM, the MIC ([5]; 24 h, read-out: MIC CK) was 62.5 µM (≈ 17 µg/mL) and the MIC ([5]; 48 h, read-out: MIC CK) was 62.5 µM (≈ 17 µg/mL). The MIC ([5]; read-out: MIC CK (Candida krusei)) was 62.5 µM (≈ 17 µg/mL), the MIC ([6]; 24 h) was > 125 µM and the MIC ([6]; 48 h) was > 125 µM. For the same compound, the MIC [7] was ≥ 500 µg/mL, the MIC [8] was ≥ 500 µg/mL and the IC50 (HepG2 cells) was > 100 µM. The “SI, selectivity index” value (HepG2 cells) was >3.5, the MIC ([9]; 24 h, read-out: MIC CA) was > 125 µM and the MIC ([9]; 48 h, read-out: MIC CA) was > 125 µM. The MIC ([9]; read-out: MIC CA (Candida albicans)) was > 125 µM, the MIC ([10]; 24 h) was > 125 µM and the MIC ([10]; 48 h) was > 125 µM. The MIC ([11]; 24 h) was > 125 µM, the MIC ([11]; 48 h) was > 125 µM and the MIC ([12]; 72 h) was > 125 µM. For the same compound, the MIC ([12]; 120 h) was > 125 µM, the MIC ([13]; CCM8363, 24 h) was > 125 µM and the MIC ([13]; CCM8363, 48 h) was > 125 µM. The MIC ([14]; 24 h) was > 125 µM, the MIC ([14]; 48 h) was > 125 µM and the MIC ([15]; 24 h, read-out: MIC CP) was > 125 µM. The MIC ([15]; 48 h, read-out: MIC CP) was > 125 µM, the MIC ([15]; read-out: MIC CP (Candida parapsilosis)) was > 125 µM and the melting point was 194 to 195 °C. The MIC ([16]; 24 h) was > 125 µM, the MIC ([16]; 48 h) was > 125 µM and the MIC ([17]; CCM8077, 24 h) was > 125 µM. For the same compound, the MIC ([17]; CCM8077, 48 h) was > 125 µM, the MIC ([18]; ATCC204305, 24 h) was > 125 µM and the MIC ([18]; ATCC204305, 48 h) was > 125 µM. For the same compound, the MIC ([19]; 24h) was > 125 µM and the MIC ([19]; 48h) was > 125 µM.
In the case of `CCCCNc1cnc(C(=O)Nc2cccc(O)c2)cn1` [Compound 2b, 5-(Butylamino)pyrazine-N-(3-hydroxyphenyl)-2-carboxamide], the MIC [1] is reported as 7.81 µg/mL (≈ 27.3 µM), the “MIC KP” value ([2]; 24h) is reported as > 500 µM and the “MIC KP” value ([2]; 48h) is reported as > 500 µM. For the same compound, the MIC ([3]; 24 h) was > 500 µM, the MIC ([3]; 48 h) was > 500 µM and the MIC ([4]; 72 h) was > 500 µM. The MIC ([4]; 120 h) was > 500 µM, the MIC ([5]; 24 h, read-out: MIC CK) was > 125 µM and the MIC ([5]; 48 h, read-out: MIC CK) was > 125 µM. The MIC ([6]; 24 h) was > 500 µM, the MIC ([6]; 48 h) was > 500 µM and the MIC [7] was ≥ 500 µg/mL. The MIC [8] was ≥ 500 µg/mL, the IC50 (HepG2 cells) was > 25 µM and the “SI, selectivity index” value (HepG2 cells) was >0.92. The MIC ([9]; 24 h, read-out: MIC CA) was > 125 µM, the MIC ([9]; 48 h, read-out: MIC CA) was > 125 µM and the MIC ([10]; 24 h) was > 125 µM. The MIC ([10]; 48 h) was > 125 µM, the MIC ([11]; 24 h) was > 500 µM and the MIC ([11]; 48 h) was > 500 µM. The MIC ([12]; 72 h) was > 125 µM, the MIC ([12]; 120 h) was > 125 µM and the MIC ([13]; CCM8363, 24 h) was > 125 µM. The MIC ([13]; CCM8363, 48 h) was > 125 µM, the MIC ([14]; 24 h) was > 500 µM and the MIC ([14]; 48 h) was > 500 µM. The MIC ([15]; 24 h, read-out: MIC CP) was > 125 µM, the MIC ([15]; 48 h, read-out: MIC CP) was > 125 µM and the melting point was 203 to 204 °C. The MIC ([16]; 24 h) was > 500 µM, the MIC ([16]; 48 h) was > 500 µM and the MIC ([17]; CCM8077, 24 h) was > 125 µM. For the same compound, the MIC ([17]; CCM8077, 48 h) was > 125 µM, the MIC ([18]; ATCC204305, 24 h) was > 125 µM and the MIC ([18]; ATCC204305, 48 h) was > 125 µM. For the same compound, the MIC ([19]; 24h) was > 500 µM and the MIC ([19]; 48h) was > 500 µM.
